Patent EP0139358B1, “N6-substituted diarylalkyl adenosines, processes for their production and pharmaceutical compositions comprising the same” (priority 1983, dated 1985)
Like-named read-outs stand apart in the source and are kept apart here.

What was measured:
[1] = system: conscious rat; assay: Antihypertensive evaluation (AHP3): aortic blood pressure and heart rate; type: in vivo; conditions: lowest dose tested at which a >10% reduction in blood pressure for four consecutive hours is achieved; conscious rat; read-out: AHP3 BP LAD
Text: […] EVALUATION (AHP3)
This test procedure is described in the following paragraphs.
A Method for the Direct Monitoring of Aortic Blood Pressure and Heart Rate from Conscious Rats
The continuous monitoring of pulsatile blood pressure (BP) from unrestrained conscious rats surgically equipped with polyethylene cannulas was accomplished by means of a computer assisted data capture scheme (CADCS). The absic elements of the methodology are the cannulation procedure and the CADCS.
Cannulation Procedure: Rats were anesthetized with Telazol (1:1 tiletamine HCI and zolazepam HCI); 20-40 mg/kg IM and the descending aorta exposed via a midline incision. Cannulas fabricated from polyethylene tubing were inserted into the aorta via an undersized puncture hole below the renal arteries. The puncture hole was made by a 23 G disposable needle with a section of the aorta clamped off above and below the puncture site. The cannulas, consisting of a PE100 (0.86 mm ID) body and a PE50 (0.58 mm ID) tip, were attached to a trocar, inserted through the psoas muscle, and passed subcutaneously along the midline of the back and externalized between the ears. The cannulas were anchored to the psoas muscle and between the scalulae (3-0 green braided suture). The midline incision was closed in two steps (muscle first, skin second) using continuous over-and over sutures (4-0 chronic). Each rat was then given penicillin 30,000 units subcutaneously (Penicillin G Procaine Sterile Suspension).
The rats were fitted with a harness-spring-swivel assembly designed to protect the cannula and to provide the rat relative freedom of movement. The harnesses were fabricated from nylon hook and loop tape cemented to a metal plate to which spring wires (18-8 stainless steel), were attached to brass swivels. Each polyethylene cannula was channeled through a spring and connected through a swivel to a pressure transducer (Model P23Gb; Statham Instruments; Hato Rey, Puerto Rico) and an infusion pump (Sage model 234-7; Orion Research, Cambridge, Ma) by means of PE100 tubing. While on test, each rat received a continuous slow infusion of heparinized saline solution (approximately 400 I or 40 units of heparin per 24 hour period) to prevent clot formation. Additional "flushes" of the cannula with heparinized saline were carried out when the aortic pulse pressure (systolic minus diastolic) was less than 25 mm Hg.
CADCS: The pulsatile blood pressure and heart rate of each of 32 rats was monitored every minute by means of two in-laboratory microcomputers communicating directly with a data concentrator computer. The data were first stored on the data concentrator disk and then transferred to a magnetic tape for analysis and report generation by the main research computer. The overall scheme involved modulating the primary signal from the pressure transducer, generating the primary data set of the one-minute values for systolic, diastolic, and mean blood pressures and heart rate by the in-lab microcomputer and the storage, analysis, and report generation by the main research computer.
The transducers were connected to analog signal conditioning modules. The modules providing a regulated excitation voltage for the transducers, amplification as required to interface the microprocessors and an active low pass filter to compensate for the pressure wave form distortion produced by the flexible, fluid filled, narrow cannula.
The microcomputers (one for each of two groups of 16 rats) were connected to the input components through the module interface units, an analog-to-digital converter for the pressure wave form signal and the digital inputs for the dose and event marker switches. The microcomputer controlled the sequential acquisition of data from the modular interface units through an internal synchronous time-of-day clock/ time base generator. […]

[2] = system: rat heart; assay: Coronary blood flow (PCS2A): isolated perfused heart; conditions: for EC50: isolated perfused rat heart
Method: CORONARY BLOOD FLOW (PCS2A)
Male rats (400-600 gms) are pretreated with Na haparin 2000 units and anesthetized with Na pentobarbital (50 mg/kg) administered intraperitoneally. Once anesthetized, the rat heart is rapidly excised, the ascending aorta fitted to the aortic perfusion cannula, and […] with a ligature. The coronary arteries are perfused initially at a rate of about 15 ml/min for two to three minutes, afterwhich they are perfused at constant pressure of 70 mm Hg and temperature of 37°C. The electrocardiogram (ECG) is recorded using two platinum electrodes positioned at the base and apex of the left ventricle. A second heart is excised, cannulated, and perfused by the same method outlined above. Both hearts are tested in parallel. The standard physiological salt solution (PSS) is a modified Krebs-Hanseleit bicarbonate buffer of the following composition in mM concentration: NaCI, 127; NaHC03, 25; dextrose, 5.5; Na Pyruvate, 2.0: KCI, 4.7; MgS04, 1.1; KH 2P04, 1.2; CaCl2·2H2O, 2.5; CaNa2 EDTA, 0.05.
A 30-minute stabilization period is observed before starting the test protocol.
The microprocessor control system is a servo mechanism which permits coronary perfusion pressure (CPP) and drug concentration to be maintained constant independent of changes in coronary flow. The level at which CPP and drug concentration are maintained can be changed by commands communicated through the microprocessor keyboard. Dose-response curves are carried out by perfusing concentrated drug solution (DC) at rates proportional to total coronary flow (CFT). Drug concentrations are increased by proportionate increases in the rate of DC infusion over CFT via the microprocessor keyboard. The proportional flow rates for DC:CFT is about .0002:1 at the low end and .02: at the high end of the dose-response curve. Dose-response curves encompassing at least two log doses are carried out by preparing two DCs with a concentration difference of 1:100. Following the first dose range of two log doses, the DC are switched, proportional pumping rate adjusted, and the dose-response curve continued for another two log doses. The standard dose-response curve is carried out in one-half log dose increments starting at a subthreshold dose and ending at a dose which produces near maximal response in activity. Standard reference compounds are tested over the range of 10-^9 to 10-^6M.
Measurements are for heart rate (HR) and coronary flow (CF). Units are: HR, beats/minute (bpm) and CF, milliliters/minute (ml/min). HR is calculated from the ECG strip chart recording and CF is calculated by recording analog outputs from pumps 1 and 2. Outputs from pump #1 = CFT and the output from pump #2 = CF for heart B (CFg). CF for heart A (CFA) is calculated (CFT - CFB = CFA).
Using the above technique, the effects of the compound of Examples 1 and 2 are as follows: […]

[3] = system: Swiss-Webster male mice; assay: Mouse Activity and Screen Test (MAST): screen test (ST); type: in vivo; conditions: for Inhibition of screen test failure: percent of mice falling off the screen; for MAST ST LAD: lowest dose at which an A rating (60-100%) is achieved, screen test, intraperitoneally
Method: (§1) Treatments are administered intraperitoneally one hour prior to testing. […] Compounds are dissolved or suspended in 0.2% Methocel. Control animals are injected with Methocel.
The compounds are identified in the Examples.

[4] = system: Swiss-Webster male mice; assay: Mouse Activity and Screen Test (MAST): inhibition of spontaneous locomotion (LI); type: in vivo; conditions: for Inhibition of mouse locomotor activity: one hour prior to testing, vs vehicle; for minimal effective dose: Mus musculus, ip, read-out: MAST LI LAD
Method: as §1
Immediately following the screen test, the final phase of testing is initiated by placing each group of three mice in one actophotometer (Life Sciences, 22, 1067-1076, 1978). The actophotometer consists of a cylindrical chamber whose center is occupied by another cylinder which contains the illumination for six photocells located on the perimeter of the chamber. Six light-beam interruptions equal one count. Locomotor activity is recorded by computer at ten minute intervals for 60 minutes. […]

[5] = coronary flow, read-out: PCS2A CF ED50
[6] = heart rate, read-out: PCS2A HR ED50

EC50 [2, 5] | MAST ST LAD [3] | SMILES | minimal effective dose [1] | EC50 [2, 6] | minimal effective dose [4] | further results
3000 nM | >100 mg/kg | OC[C@H]1O[C@@H](n2cnc3c(NCCC(c4ccccc4)c4ccccc4)ncnc32)[C@H](O)[C@@H]1O [Example 2, N^6-(3,3-Diphenylpropyl)adenosine] | > 30 mg/kg | 6000 nM | 100 mg/kg | activation at 1 µM ([2]; Dose 1 × 10^-6 Molar, coronary flow change, isolated rat heart, read-out: CF): 47%; activation at 0.1 µM ([2]; Dose 1 × 10^-7 Molar, coronary flow change, isolated rat heart, read-out: CF): 42%; activation at 0.01 µM ([2]; Dose 1 × 10^-8 Molar, coronary flow change, isolated rat heart, read-out: CF): 26%; activation at 3 µM ([2]; Dose 3 × 10^-6 Molar, coronary flow change, isolated rat heart, read-out: CF): 48%; Inhibition of screen test failure ([3]; 10 mg/kg intraperitoneally): 0%; Inhibition of screen test failure ([3]; 30 mg/kg intraperitoneally): 0%; Inhibition of screen test failure ([3]; 100 mg/kg intraperitoneally): 0%; Inhibition of mouse locomotor activity ([4]; 10 mg/kg intraperitoneally): −9%; Inhibition of mouse locomotor activity ([4]; 30 mg/kg intraperitoneally): 13%; Inhibition of mouse locomotor activity ([4]; 100 mg/kg intraperitoneally): 60%
14 nM | >100 mg/kg | OC[C@H]1O[C@@H](n2cnc3c(NCCCC(c4ccccc4)c4ccccc4)ncnc32)[C@H](O)[C@@H]1O [Example 6, N^6-(4,4-Diphenylbutyl)adenosine] | > 30 mg/kg | > 1000 nM | 100 mg/kg | –
> 3000 nM | >100 mg/kg | OC[C@H]1O[C@@H](n2cnc3c(NCCCCC(c4ccccc4)c4ccccc4)ncnc32)[C@H](O)[C@@H]1O [Example 7, N^6-(5,5-Diphenylpentyl)adenosine] | > 10 mg/kg | 3000 nM | 100 mg/kg | –
– | 100 mg/kg | Cc1cccc(C(CNc2ncnc3c2ncn3[C@@H]2O[C@H](CO)[C@@H](O)[C@H]2O)c2ccccc2)c1 (stereo partly shown) [Example 9, N^6-(2-(3-Methylphenyl)-2-phenylethyl)adenosine] | – | – | ≤ 10 mg/kg | –
50 nM | >100 mg/kg | OC[C@H]1O[C@@H](n2cnc3c(NCC(c4ccccc4)c4ccc(F)cc4)nc(Cl)nc32)[C@H](O)[C@@H]1O (stereo partly shown) [Example 11, N^6-(2-(4-Fluorophenyl)-2-phenylethyl)-2-chloroadenosine] | 10 mg/kg | > 3000 nM | 30 mg/kg | –
– | >100 mg/kg | OC[C@H]1O[C@@H](n2cnc3c(NCC(c4ccc(F)cc4)c4ccc(F)cc4)ncnc32)[C@H](O)[C@@H]1O [Example 13, ^N'-(^2,2-Di-(4-fluorophenyl)ethyl)adenosine] | 10 mg/kg | – | 3 mg/kg | –
– | >100 mg/kg | OC[C@H]1O[C@@H](n2cnc3c(NCC(c4ccccc4)c4cccc(Cl)c4)ncnc32)[C@H](O)[C@@H]1O (stereo partly shown) [Example 14, N^6-(2-(3-Chlorophenyl)-2-phenylethyl)adenosine] | – | – | 1 mg/kg | –
– | >100 mg/kg | Nc1nc(NCC(c2ccccc2)c2ccc(Cl)cc2)c2ncn([C@@H]3O[C@H](CO)[C@@H](O)[C@H]3O)c2n1 (stereo partly shown) [Example 16, N^6-(2-(4-Chlorophenyl)-2-phenylethyl)-2-aminoadenosine] | > 10 mg/kg | – | 100 mg/kg | –
> 3000 nM | >100 mg/kg | OC[C@H]1O[C@@H](n2cnc3c(NCC(c4ccc(Cl)cc4)c4ccc(Cl)cc4)ncnc32)[C@H](O)[C@@H]1O [Example 17, N^6-(2,2-Di(4-chlorophenyl)ethyl)adenosine] | – | > 3000 nM | 100 mg/kg | –
– | >30 mg/kg | Nc1nc(NCC(c2ccc(Cl)cc2)c2ccc(Cl)cc2)c2ncn([C@@H]3O[C@H](CO)[C@@H](O)[C@H]3O)c2n1 [Example 18, N^6-(2,2-Di-(4-chlorophenyl)ethyl)-2-aminoadenosine] | > 10 mg/kg | – | > 30 mg/kg | –
> 3000 nM | >30 mg/kg | COC(=O)C(CNc1ncnc2c1ncn2[C@@H]1O[C@H](CO)[C@@H](O)[C@H]1O)(c1ccccc1)c1ccccc1 [Example 24, N^s-(2-Carbomethoxy-2,2-diphenylethyl)adenosine] | – | 3000 nM | 30 mg/kg | –
– | >100 mg/kg | O=C(OC[C@H]1O[C@@H](n2cnc3c(NCC(c4ccccc4)c4ccccc4)ncnc32)[C@H](OC(=O)c2ccccc2)[C@@H]1OC(=O)c1ccccc1)c1ccccc1 [Example 26, 2',3',5'-Tri-0-benzoyl-N^6-(2,2-diphenylethyl)adenosine] | 10 mg/kg | – | 10 mg/kg | –
– | >100 mg/kg | CC(=O)OC[C@H]1O[C@@H](n2cnc3c(NCC(c4ccccc4)c4ccccc4)nc(Cl)nc32)[C@H](OC(C)=O)[C@@H]1OC(C)=O [Example 27, 2',3',5'-Tri-O-acetyl-N^6-(2,2-diphenylethyl)-2-chloroadenosine] | – | – | 30 mg/kg | –
– | >30 mg/kg | O=P(O)(O)OC[C@H]1O[C@@H](n2cnc3c(NCC(c4ccccc4)c4ccccc4)ncnc32)[C@H](O)[C@@H]1O [Example 28, N^6-(2,2-Diphenylethyl)adenosine-5'-phosphate] | – | – | ≤ 3 mg/kg | –
– | >100 mg/kg | CC1(C)O[C@@H]2[C@H](O1)[C@@H](CO)O[C@H]2n1cnc2c(NCC(c3ccccc3)c3ccccc3)ncnc21 [Example 29, 2',3'-0-Isopropylidene-N6-(2,2-diphenylethyl)adenosine] | 10 mg/kg | – | 30 mg/kg | –
